Experimental findings from ChEMBL document CHEMBL5465560, “Selectivity Literature for EUbOPEN Chemogenomic Library” (2024) are described below.

Assay [1] deals with Tyrosine-protein kinase ABL1 (Homo sapiens), P00519 [E255K]. Briefly: (§1) Selectivity interaction (ProQinase) EUB0000171b ABL1.
Assay [2] relates to Tyrosine-protein kinase ABL1 (Homo sapiens), P00519 [F317I]. The assay is described as §1.
Assay [3] deals with Tyrosine-protein kinase ABL1 (Homo sapiens), P00519 [G250E]. The assay is described as §1.
Assay [4] has as its system Tyrosine-protein kinase ABL1 (Homo sapiens), P00519 [H396P]. The assay is described as §1.
Assay [5] has as its system Tyrosine-protein kinase ABL1 (Homo sapiens), P00519 [M351T]. The description is as §1.
The test system of assay [6] is Tyrosine-protein kinase ABL1 (Homo sapiens), P00519 [Q252H]. The description is as §1.
The subject of assay [7] is Tyrosine-protein kinase ABL1 (Homo sapiens), P00519 [T315I]. Described as §1.
The test system of assay [8] is Tyrosine-protein kinase ABL1 (Homo sapiens), P00519 [Y253F]. Described as §1.
Assay [9] deals with Tyrosine-protein kinase ABL1 (Homo sapiens, UniProt P00519). The description is as §1.
Assay [10] has as its target Proto-oncogene tyrosine-protein kinase ROS (Homo sapiens) (UniProt P08922). Kind of assay: Selectivity interaction (Ambit KINOMEscan and KiNATiv profiling in Jurkat cells) EUB0000090b ROS1. The format is cell-based. The settings on record: at 1 µM.
Assay [11] has as its target T1, 5-hydroxytryptamine receptor 1A (Homo sapiens) (UniProt P08908).
T1 sequence (whole entry): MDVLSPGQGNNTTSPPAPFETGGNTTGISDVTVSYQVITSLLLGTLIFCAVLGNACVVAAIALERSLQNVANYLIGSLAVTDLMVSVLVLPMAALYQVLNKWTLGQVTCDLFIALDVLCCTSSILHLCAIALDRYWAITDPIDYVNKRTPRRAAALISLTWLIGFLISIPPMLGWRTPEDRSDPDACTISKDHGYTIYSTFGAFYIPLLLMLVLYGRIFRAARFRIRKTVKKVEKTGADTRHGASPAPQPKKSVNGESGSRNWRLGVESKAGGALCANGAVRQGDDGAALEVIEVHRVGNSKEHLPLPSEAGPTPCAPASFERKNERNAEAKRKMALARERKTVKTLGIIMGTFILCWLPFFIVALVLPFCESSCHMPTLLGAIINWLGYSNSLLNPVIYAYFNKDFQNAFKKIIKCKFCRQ
Briefly: Selectivity interaction (GPCR panel (PDSP screen)) EUB0001079a HTR1A. The settings on record: at 10 µM.

The target in assay [12] is T2, Phosphorylase b kinase gamma catalytic chain, liver/testis isoform (Homo sapiens) (UniProt P15735).
T2 sequence (whole entry): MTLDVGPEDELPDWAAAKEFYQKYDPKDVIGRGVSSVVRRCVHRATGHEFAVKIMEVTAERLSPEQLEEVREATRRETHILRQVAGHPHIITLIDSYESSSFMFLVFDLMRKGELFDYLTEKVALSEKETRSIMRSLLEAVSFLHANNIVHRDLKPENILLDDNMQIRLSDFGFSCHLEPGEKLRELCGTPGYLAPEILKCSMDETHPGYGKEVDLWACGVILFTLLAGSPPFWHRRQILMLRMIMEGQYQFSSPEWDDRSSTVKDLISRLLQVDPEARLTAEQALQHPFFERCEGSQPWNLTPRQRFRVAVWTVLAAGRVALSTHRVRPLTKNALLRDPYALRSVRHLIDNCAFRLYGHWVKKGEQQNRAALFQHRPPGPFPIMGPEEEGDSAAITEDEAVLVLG
Kind of assay: Selectivity interaction (KinomeScan (DiscoverX)) EUB0000092b PHKG2. The settings on record: at 10 µM.

Assay [13] has as its target T3, Cytoplasmic tyrosine-protein kinase BMX (Homo sapiens) (UniProt P51813).
T3 sequence (whole entry): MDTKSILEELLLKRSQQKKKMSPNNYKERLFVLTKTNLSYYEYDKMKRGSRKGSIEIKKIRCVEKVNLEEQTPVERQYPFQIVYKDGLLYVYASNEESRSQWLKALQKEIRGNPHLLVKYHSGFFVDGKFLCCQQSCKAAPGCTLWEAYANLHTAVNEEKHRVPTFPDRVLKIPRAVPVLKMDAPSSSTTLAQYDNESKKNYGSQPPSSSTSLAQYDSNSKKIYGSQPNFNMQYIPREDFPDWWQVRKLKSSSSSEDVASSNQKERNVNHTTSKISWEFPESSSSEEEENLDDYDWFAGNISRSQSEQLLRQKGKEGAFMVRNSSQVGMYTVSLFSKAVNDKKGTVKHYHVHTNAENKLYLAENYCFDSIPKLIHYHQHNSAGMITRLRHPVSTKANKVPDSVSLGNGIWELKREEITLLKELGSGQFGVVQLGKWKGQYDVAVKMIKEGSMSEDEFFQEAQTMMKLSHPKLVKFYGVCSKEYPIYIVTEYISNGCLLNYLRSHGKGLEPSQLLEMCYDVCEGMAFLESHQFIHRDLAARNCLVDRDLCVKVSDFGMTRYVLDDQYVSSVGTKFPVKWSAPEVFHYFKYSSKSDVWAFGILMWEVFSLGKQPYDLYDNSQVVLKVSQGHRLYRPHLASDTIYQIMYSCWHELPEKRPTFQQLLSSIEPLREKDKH
Briefly: Selectivity interaction (KinomeScan (DiscoverX)) EUB0001049a BMX. The settings on record: at 1 µM.

For assay [14], the target named is Fibroblast growth factor receptor 1 (Homo sapiens, UniProt P11362). Kind of assay: Selectivity interaction (KinomeScan (DiscoverX)) EUB0000655a FGFR1. The settings on record: at 10 µM.
Fibroblast growth factor receptor 1, sequence (P11362 22-822 limits assumed): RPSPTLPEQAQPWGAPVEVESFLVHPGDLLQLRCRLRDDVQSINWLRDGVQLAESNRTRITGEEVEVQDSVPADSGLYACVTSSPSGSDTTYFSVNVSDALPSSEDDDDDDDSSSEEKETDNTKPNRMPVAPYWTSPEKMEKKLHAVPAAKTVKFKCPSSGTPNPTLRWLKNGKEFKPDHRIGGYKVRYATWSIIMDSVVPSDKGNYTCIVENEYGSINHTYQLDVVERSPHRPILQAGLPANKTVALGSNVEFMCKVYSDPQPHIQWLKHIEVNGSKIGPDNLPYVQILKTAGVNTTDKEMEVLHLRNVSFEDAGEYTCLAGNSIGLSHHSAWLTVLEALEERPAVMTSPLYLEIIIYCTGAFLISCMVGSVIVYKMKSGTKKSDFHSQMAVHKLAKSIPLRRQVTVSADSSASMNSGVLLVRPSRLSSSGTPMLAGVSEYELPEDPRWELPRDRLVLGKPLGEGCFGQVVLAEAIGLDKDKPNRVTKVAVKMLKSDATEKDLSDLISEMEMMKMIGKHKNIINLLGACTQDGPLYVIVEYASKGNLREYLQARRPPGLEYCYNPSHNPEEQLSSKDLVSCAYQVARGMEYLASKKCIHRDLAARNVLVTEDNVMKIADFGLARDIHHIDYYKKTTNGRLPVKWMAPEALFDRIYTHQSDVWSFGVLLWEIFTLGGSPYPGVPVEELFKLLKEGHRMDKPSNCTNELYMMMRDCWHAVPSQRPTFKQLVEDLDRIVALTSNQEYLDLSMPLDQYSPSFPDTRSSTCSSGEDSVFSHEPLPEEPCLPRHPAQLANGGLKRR
Assay [15] concerns the target Mitotic checkpoint serine/threonine-protein kinase BUB1 (Homo sapiens, UniProt O43683). Briefly: Selectivity interaction (KinomeScan (DiscoverX)) EUB0001619a BUB1. The settings on record: at 1 µM.
The target in assay [16] is T4, Activin receptor type-1 (Homo sapiens) (UniProt Q04771).
T4 sequence (whole entry): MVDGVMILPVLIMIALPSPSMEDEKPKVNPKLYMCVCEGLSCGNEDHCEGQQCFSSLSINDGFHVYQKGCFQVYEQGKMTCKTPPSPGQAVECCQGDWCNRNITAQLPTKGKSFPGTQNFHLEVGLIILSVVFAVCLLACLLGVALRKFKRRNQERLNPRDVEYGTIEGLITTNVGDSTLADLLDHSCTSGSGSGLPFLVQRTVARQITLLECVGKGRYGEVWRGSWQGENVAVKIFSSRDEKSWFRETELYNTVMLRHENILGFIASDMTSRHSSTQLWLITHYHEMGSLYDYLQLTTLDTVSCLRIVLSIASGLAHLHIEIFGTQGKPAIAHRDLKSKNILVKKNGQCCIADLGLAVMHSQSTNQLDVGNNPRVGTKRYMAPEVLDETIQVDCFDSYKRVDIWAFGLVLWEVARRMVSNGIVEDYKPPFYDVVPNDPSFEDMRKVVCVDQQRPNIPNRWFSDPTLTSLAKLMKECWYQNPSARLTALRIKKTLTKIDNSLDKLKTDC
Briefly: Selectivity interaction (KinomeScan (DiscoverX)) EUB0000618a ACVR1. The settings on record: at 10 µM.

Proto-oncogene tyrosine-protein kinase ROS (Homo sapiens), sequence (P08922 whole entry): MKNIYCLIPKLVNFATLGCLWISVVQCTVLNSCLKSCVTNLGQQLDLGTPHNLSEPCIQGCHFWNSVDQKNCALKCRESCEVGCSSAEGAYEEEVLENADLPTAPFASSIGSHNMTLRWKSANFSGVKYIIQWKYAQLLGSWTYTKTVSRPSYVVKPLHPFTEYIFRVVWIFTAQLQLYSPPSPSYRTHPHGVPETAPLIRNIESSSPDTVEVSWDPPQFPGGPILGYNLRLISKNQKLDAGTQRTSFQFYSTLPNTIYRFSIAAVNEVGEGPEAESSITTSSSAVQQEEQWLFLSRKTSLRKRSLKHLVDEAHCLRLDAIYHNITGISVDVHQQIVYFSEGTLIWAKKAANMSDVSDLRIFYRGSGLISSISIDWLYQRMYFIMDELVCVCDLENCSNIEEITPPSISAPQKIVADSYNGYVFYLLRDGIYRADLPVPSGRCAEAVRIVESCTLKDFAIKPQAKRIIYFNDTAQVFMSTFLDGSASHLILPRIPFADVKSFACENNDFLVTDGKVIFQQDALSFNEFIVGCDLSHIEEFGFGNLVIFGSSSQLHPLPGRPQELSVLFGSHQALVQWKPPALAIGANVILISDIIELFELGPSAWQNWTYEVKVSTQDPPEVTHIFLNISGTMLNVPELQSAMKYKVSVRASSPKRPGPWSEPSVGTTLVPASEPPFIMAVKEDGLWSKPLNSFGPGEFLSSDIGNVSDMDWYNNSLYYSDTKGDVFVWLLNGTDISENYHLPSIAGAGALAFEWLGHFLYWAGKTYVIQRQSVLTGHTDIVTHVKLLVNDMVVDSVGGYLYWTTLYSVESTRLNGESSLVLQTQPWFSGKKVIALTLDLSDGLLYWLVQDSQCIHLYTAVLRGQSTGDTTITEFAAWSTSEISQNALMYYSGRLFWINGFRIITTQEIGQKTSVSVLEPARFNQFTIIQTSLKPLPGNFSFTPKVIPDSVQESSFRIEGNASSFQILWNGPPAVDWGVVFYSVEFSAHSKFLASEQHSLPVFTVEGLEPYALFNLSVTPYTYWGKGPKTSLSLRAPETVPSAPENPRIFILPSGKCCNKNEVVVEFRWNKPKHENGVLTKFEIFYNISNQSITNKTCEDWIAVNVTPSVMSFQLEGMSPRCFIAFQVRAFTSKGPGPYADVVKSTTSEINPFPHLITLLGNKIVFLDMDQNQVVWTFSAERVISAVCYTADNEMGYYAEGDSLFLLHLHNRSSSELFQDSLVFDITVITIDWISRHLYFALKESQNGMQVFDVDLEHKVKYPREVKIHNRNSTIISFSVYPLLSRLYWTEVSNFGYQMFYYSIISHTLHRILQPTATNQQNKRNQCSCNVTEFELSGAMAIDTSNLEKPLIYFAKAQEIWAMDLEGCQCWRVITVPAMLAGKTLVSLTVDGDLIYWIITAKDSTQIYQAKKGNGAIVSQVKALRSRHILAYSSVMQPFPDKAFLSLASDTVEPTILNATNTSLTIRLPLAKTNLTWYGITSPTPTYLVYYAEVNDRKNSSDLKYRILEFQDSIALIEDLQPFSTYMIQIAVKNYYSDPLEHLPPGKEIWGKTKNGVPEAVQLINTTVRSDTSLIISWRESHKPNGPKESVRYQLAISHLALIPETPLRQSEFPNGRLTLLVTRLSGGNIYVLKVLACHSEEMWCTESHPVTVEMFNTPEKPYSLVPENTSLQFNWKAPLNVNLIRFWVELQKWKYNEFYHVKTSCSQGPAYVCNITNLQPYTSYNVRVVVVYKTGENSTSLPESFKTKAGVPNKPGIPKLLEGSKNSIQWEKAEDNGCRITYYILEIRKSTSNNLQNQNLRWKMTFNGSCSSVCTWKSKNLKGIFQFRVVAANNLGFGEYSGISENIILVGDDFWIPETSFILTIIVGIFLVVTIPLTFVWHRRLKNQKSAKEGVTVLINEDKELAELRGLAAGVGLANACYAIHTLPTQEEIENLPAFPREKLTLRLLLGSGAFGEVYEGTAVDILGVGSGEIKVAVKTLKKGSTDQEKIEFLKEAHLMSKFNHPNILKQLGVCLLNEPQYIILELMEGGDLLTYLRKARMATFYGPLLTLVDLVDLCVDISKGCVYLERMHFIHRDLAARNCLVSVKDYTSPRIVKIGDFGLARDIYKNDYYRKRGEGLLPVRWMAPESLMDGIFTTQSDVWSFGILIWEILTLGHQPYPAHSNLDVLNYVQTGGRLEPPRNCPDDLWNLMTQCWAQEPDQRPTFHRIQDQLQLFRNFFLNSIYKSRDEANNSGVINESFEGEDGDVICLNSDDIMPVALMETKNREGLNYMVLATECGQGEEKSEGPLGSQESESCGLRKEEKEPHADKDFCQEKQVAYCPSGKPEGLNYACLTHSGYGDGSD
Mitotic checkpoint serine/threonine-protein kinase BUB1, sequence (O43683 whole entry, looked up): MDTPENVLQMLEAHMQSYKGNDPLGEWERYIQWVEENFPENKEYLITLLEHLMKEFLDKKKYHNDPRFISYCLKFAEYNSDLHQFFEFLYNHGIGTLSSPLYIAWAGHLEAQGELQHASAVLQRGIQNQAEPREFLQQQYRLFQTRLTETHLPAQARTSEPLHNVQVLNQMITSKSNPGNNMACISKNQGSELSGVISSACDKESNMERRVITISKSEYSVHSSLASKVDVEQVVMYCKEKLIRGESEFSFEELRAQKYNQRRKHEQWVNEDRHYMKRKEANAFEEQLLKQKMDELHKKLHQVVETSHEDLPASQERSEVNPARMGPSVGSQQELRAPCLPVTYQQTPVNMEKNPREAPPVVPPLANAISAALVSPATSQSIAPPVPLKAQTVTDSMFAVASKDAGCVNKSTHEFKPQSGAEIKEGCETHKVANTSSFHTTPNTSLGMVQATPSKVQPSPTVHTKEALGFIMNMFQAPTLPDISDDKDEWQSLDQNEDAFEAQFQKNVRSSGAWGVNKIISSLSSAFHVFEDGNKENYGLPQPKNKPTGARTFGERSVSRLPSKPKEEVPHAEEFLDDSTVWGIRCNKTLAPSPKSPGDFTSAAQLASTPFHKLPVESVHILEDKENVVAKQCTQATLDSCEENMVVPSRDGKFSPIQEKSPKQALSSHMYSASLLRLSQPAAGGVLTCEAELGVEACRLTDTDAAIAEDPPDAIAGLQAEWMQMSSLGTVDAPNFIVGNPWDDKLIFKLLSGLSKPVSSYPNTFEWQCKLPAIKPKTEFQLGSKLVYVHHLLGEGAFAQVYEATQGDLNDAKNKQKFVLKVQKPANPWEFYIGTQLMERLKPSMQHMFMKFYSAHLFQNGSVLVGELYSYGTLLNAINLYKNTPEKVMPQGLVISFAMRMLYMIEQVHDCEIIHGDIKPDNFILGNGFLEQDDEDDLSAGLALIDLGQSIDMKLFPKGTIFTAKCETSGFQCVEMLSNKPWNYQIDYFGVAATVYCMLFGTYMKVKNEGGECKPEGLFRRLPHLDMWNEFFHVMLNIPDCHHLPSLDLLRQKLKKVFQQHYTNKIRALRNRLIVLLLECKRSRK

For `C=CC(=O)Nc1cccc(C(=O)Nc2ccc(Nc3cc(-c4[nH]c(SC)nc4C)ccn3)cc2)c1`, the % of control in assay [1] (at 1 µM) worked out at 94%; in assay [1] (at 5 µM), 88%; in [2] (at 1 µM) it was 102%; in assay [2] (at 5 µM), 82%; in assay [3] (at 1 µM), 88%; in [3] (at 5 µM), 89%. Besides, the % of control in [4] (at 1 µM) stood at 93%; in assay [4] (at 5 µM), 71%; in assay [5] (at 1 µM), 87%; in assay [5] (at 5 µM), 61%; in [6] (at 1 µM) it was 96%; in assay [6] (at 5 µM), 65%. The % of control was 91% in assay [7] (at 1 µM); 82% in [7] (at 5 µM); 85% in [8] (at 1 µM); 64% in assay [8] (at 5 µM); 96% in assay [9] (at 1 µM); 71% in [9] (at 5 µM).
Take `CN(C)C/C=C/C(=O)Nc1ccc(C(=O)N2CCCC(Nc3ncc(Cl)c(-c4c[nH]c5ccccc45)n3)C2)cc1` (stereo not given): the % of control in assay [10] was determined as 85%.
`Nc1cnc(N2CCc3cc(S(=O)(=O)Nc4c(F)cc(Cl)cc4F)cc(N4CCCC4=O)c32)nc1` [TP-020n]: the % of inhibition in assay [11] was 4.45%.
Molecule `CCC(=O)N1CCN(c2ccc(-n3c(=O)ccc4cnc5ccc(-c6cnc7ccccc7c6)cc5c43)cc2C(F)(F)F)CC1` gave a % of control in assay [12] of 100%.
As to `COc1cc(Nc2nc(C)cc(-c3cnn4nc(OC)ccc34)n2)cc(C(F)(F)F)c1`, the % of control in assay [13] turned out to be 87%.
Take `CN(C)CCOc1ccc(-c2nc(-c3ccncc3)c(-c3ccc4c(c3)CC/C4=N\O)[nH]2)cc1`: the % of control in assay [14] was found to be 99%.
Regarding `N#Cc1cccc(-c2c[nH]c3ncnc(N4CCOCC4)c23)c1`, the % of control in assay [15] worked out at 86%.
Molecule `O[C@H]1CC[C@H](Nc2ncc3nc(Nc4c(F)cc(F)cc4F)n([C@H]4CCOC4)c3n2)CC1` showed a % of control in assay [16] of 100%.
